# Laboratory results: ChEMBL document CHEMBL1629610, “A 6-aminoquinolone compound, WC5, with potent and selective anti-human cytomegalovirus activity” (Antimicrob Agents Chemother, 2009)
# The source made the active and inactive calls. The rule behind the calls is not given here.
# Columns and labels:
# [1] = Cytotoxicity against human foreskin fibroblast after 5 days by MTT assay; assay type: cell-based; conditions: human foreskin fibroblasts (HFF)
# [2] = Selectivity index, ratio of CC50 for Human foreskin fibroblast to EC50 for Human cytomegalovirus AD169
# [3] = tested on: Human betaherpesvirus 5; assay: Antiviral activity against Human cytomegalovirus AD169 infected in human foreskin fibroblast assessed as inhibition of viral replication after 10 days by plaque reduction assay; assay type: functional, organism-based; conditions: Human betaherpesvirus 5, AD169, 240 h
# [4] = tested on: Human betaherpesvirus 5; assay: Antiviral activity against Human cytomegalovirus infected in human […] cells transfected with pcDNA3.1-HIV1 LTR-GFP assessed as induction of GFP-tagged viral immediate early gene expression at 0.5 uM after 48 hrs by transactivation assay; assay type: functional, organism-based; conditions: AD169
# [5] = tested on: Human betaherpesvirus 5; assay: Antiviral activity against Human cytomegalovirus infected in human […] cells transfected with pcDNA3.1-human EF1alpha-GFP assessed as induction of GFP-tagged viral immediate early gene expression at 0.5 uM after 48 hrs by transactivation assay; assay type: functional, organism-based; conditions: AD169
# [6] = tested on: Human betaherpesvirus 5; assay: Antiviral activity against Human cytomegalovirus AD169 infected in human […] cells assessed as induction of GFP-tagged viral immediate early gene expression at 0.5 uM after 48 hrs by flow cytometry; assay type: functional, organism-based
# [7] = tested on: Human betaherpesvirus 5; assay: Antiviral activity against Human cytomegalovirus infected in human […] cells transfected with pcDNA3.1-human GADPH-GFP assessed as induction of GFP-tagged viral immediate early gene expression at 0.5 uM after 48 hrs by transactivation assay; assay type: functional, organism-based; conditions: AD169
# [8] = Ratio of EC50 for Human cytomegalovirus AD169 to EC50 for Murine cytomegalovirus; assay type: functional
# [9] = Cytotoxicity against human HSB2 cells by MTT assay; assay type: cell-based, CCRF-HSB-2
# [10] = tested on: MOLT-4; assay: Antiviral activity against Human herpesvirus 6B Z29 infected in human MOLT4 cells assessed as inhibition of virus-induced cytopathic effect by microscopic estimation; assay type: functional, cell-based; conditions: Human herpesvirus 6 strain Z29
# [11] = Antiviral activity against Human herpesvirus 6B Z29 infected in human MOLT4 cells assessed as inhibition of virus DNA replication after 12 days by quantitative real time PCR; assay type: functional, cell-based, Human herpesvirus 6 strain Z29; conditions: Human betaherpesvirus 6B, MOLT-4, 288 h
# [12] = tested on: Human betaherpesvirus 5; assay: Antiviral activity against Human cytomegalovirus AD169 infected in human […] cells assessed as induction of GFP-tagged viral immediate early gene expression at 50 uM after 48 hrs by flow cytometry; assay type: functional, organism-based
# [13] = Selectivity index, ratio of CC50 for human HSB-2 cells to EC50 for Human herpesvirus 6A GS; assay type: toxicity, cell-based; conditions: read-out: Ratio CC50/EC50
# [14] = tested on: Human betaherpesvirus 5; assay: Antiviral activity against Human cytomegalovirus infected in human […] cells transfected with pcDNA3.1-human EF1alpha-GFP assessed as induction of GFP-tagged viral immediate early gene expression at 50 uM after 48 hrs by transactivation assay; assay type: functional, organism-based; conditions: AD169
# [15] = tested on: HSB-2; assay: Antiviral activity against Human herpesvirus 6A GS infected in human HSB-2 cells assessed as inhibition of virus-induced cytopathic effect by microscopic estimation; assay type: functional, cell-based; conditions: Human herpesvirus 6 (strain GS)
# [16] = tested on: Human gammaherpesvirus 8; assay: Antiviral activity against Human herpesvirus 8 infected in human BC-3 cells assessed as inhibition of virus DNA replication after 12 days by quantitative real time PCR; assay type: functional, organism-based; conditions: Human gammaherpesvirus 8, BC-3, 288 h
# [17] = tested on: Human betaherpesvirus 5; assay: Antiviral activity against PFA-, acyclovir-resistant Human cytomegalovirus D100 harboring mutation in DNA polymerase infected in human foreskin fibroblast by plaque reduction assay; assay type: functional, organism-based; conditions: Human betaherpesvirus 5, D100
# [18] = tested on: Human betaherpesvirus 5; assay: Antiviral activity against GCV-resistant Human cytomegalovirus 759rD100 harboring 4-aa deletion (638-641) in UL97 kinase and DNA polymerase A987G mutant infected in human foreskin fibroblast by plaque reduction assay; assay type: functional, organism-based; conditions: Human betaherpesvirus 5, 759rD100
# [19] = tested on: Human betaherpesvirus 5; assay: Antiviral activity against GDG-, GCV-resistant Human cytomegalovirus K17 harboring 4-aa deletion (638-641) in UL97 kinase infected in human foreskin fibroblast by plaque reduction assay; assay type: functional, organism-based; conditions: Human betaherpesvirus 5, K17
# [20] = tested on: Human betaherpesvirus 5; assay: Antiviral activity against Human cytomegalovirus infected in human […] cells transfected with pcDNA3.1-HIV1 LTR-GFP assessed as induction of GFP-tagged viral immediate early gene expression at 50 uM after 48 hrs by transactivation assay; assay type: functional, organism-based; conditions: AD169
# [21] = Cytotoxicity against human MOLT4 cells by MTT assay; assay type: cell-based, MOLT-4
# [22] = Selectivity index, ratio of CC50 for mouse NIH 3T3 cells to EC50 for Murine cytomegalovirus; assay type: toxicity, cell-based, NIH3T3; conditions: read-out: Ratio CC50/EC50
# [23] = tested on: Human gammaherpesvirus 8; assay: Antiviral activity against Human herpesvirus 8 infected in human BC-3 cells assessed as inhibition of virus-induced cytopathic effect by microscopic estimation; assay type: functional, organism-based
# [24] = tested on: Human betaherpesvirus 5; assay: Antiviral activity against GDG-, GCV-,CDV-resistant Human cytomegalovirus P53 harboring DNA polymerase A987G mutant gene infected in human foreskin fibroblast by plaque reduction assay; assay type: functional, organism-based; conditions: Human betaherpesvirus 5, P53
# [25] = Cytotoxicity against human BC-3 cells by MTT assay; assay type: cell-based
# [26] = tested on: Human betaherpesvirus 5; assay: Antiviral activity against Human cytomegalovirus infected in human […] cells transfected with pcDNA3.1-human GADPH-GFP assessed as induction of GFP-tagged viral immediate early gene expression at 50 uM after 48 hrs by transactivation assay; assay type: functional, organism-based; conditions: AD169
# [27] = Selectivity index, ratio of CC50 for human MOLT4 cells to EC50 for Human herpesvirus 6B Z29; assay type: toxicity, cell-based, MOLT-4; conditions: read-out: Ratio CC50/EC50
# [28] = tested on: Human betaherpesvirus 5; assay: Antiviral activity against Human cytomegalovirus AD169 infected in human foreskin fibroblast by plaque reduction assay; assay type: functional, organism-based; conditions: Human betaherpesvirus 5, AD169
# [29] = Cytotoxicity against mouse NIH/3T3 cells by MTT assay; assay type: cell-based, NIH3T3
# [30] = Antiviral activity against Murine cytomegalovirus Smith infected in mouse NIH-3T3 cells assessed as inhibition of virus DNA replication after 12 days by plaque reduction assay; assay type: functional, cell-based, Murine cytomegalovirus (strain Smith); conditions: Murid betaherpesvirus 1, NIH3T3, 288 h
# [31] = Antiviral activity against Human herpesvirus 6A GS infected in human HSB-2 cells assessed as inhibition of virus DNA replication after 12 days by quantitative real time PCR; assay type: functional, cell-based, Human herpesvirus 6 (strain GS); conditions: Human betaherpesvirus 6A, HSB2, 288 h
# [32] = Selectivity index, ratio of CC50 for human BC-3 cells to EC50 for Human herpesvirus 8; assay type: toxicity, cell-based; conditions: read-out: Ratio CC50/EC50
smiles,measurement,setting,value
CC(C)(C)n1cc(C(=O)O)c(=O)c2cc(N)c(N3CCN(c4ccccn4)CC3)cc21,CC50 at 120 h,[1],≥ 475 µM
same,Ratio CC50/EC50,[2],>=13
Nc1nc2c(ncn2COC(CO)CO)c(=O)[nH]1 [GANCICLOVIR],EC50,[3],1.9 µM
same,CC50 at 120 h,[1],550 µM
Cn1cc(C(=O)O)c(=O)c2cc(N)c(N3CCN(c4ccccn4)CC3)cc21,CC50 at 120 h,[1],54 µM
same,Ratio CC50/EC50,[2],77
Nc1cc2c(=O)c(C(=O)O)cn(C3CC3)c2cc1N1CCN(c2nc3ccccc3s2)CC1,Activity,[4],Active
same,Activity,[5],Active
same,Activity,[6],Active
same,Activity,[7],Active
same,CC50 at 120 h,[1],4.5 µM
Nc1cc2c(=O)c(C(=O)O)cn(C3CC3)c2cc1N1CCN(c2ccccn2)CC1,fold change (FC),[8],10
same,CC50,[9],32 µM
same,Activity,[10],Active
same,EC50,[11],3.3 µM
same,Activity,[12],inactive
same,selectivity ratio,[13],6
same,Activity,[14],inactive
same,Activity,[15],Active
same,EC50,[16],14.2 µM
same,EC50,[17],1.1 µM
same,EC50,[18],0.9 µM
same,EC50,[19],1.5 µM
same,Activity,[20],inactive
same,CC50,[21],24 µM
same,selectivity ratio,[22],25
same,Activity,[23],Active
same,EC50,[24],1 µM
same,CC50,[25],47 µM
same,Activity,[26],inactive
same,selectivity ratio,[27],7
same,EC50,[28],0.9 µM
same,CC50,[29],275 µM
same,EC50,[30],10.8 µM
same,EC50,[31],5.1 µM
same,CC50 at 120 h,[1],431 µM
same,selectivity ratio,[32],3
